Laboratory results taken from patent publication US20140235533A1, “DIHYDROFURAN DERIVATIVES AS INSECTICIDAL COMPOUNDS” (SYNGENTA PARTICIPATIONS AG, priority 2011, published 2014).

Experiments:
Type in all cases: in vivo
Diabrotica balteata = Diabrotica balteata (corn root worm) artificial diet MTP test; conditions: 120 h, 200 ppm (concentration in well 18 ppm), L2 larvae, larval mortality and growth regulation after 5 days
Experimental: (§1) Diabrotica balteata (Corn Root Worm): A 24-well microtiter plate (MTP) with artificial diet was treated with test solutions at an application rate of 200 ppm (concentration in well 18 ppm) by pipetting. After drying, the MTPs were infested with L2 larvae (6-10 per well). After an incubation period of 5 days, samples were checked for larval mortality and growth regulation.

Spodoptera littoralis = Spodoptera littoralis (Egyptian cotton leafworm) cotton leaf disc spray test; conditions: foliar, 72 h, 200 ppm spray on cotton leaf discs, 5 L1 larvae, mortality, feeding behavior, growth regulation 3 days after treatment
Text: Spodoptera littoralis (Egyptian Cotton Leafworm) Cotton leaf discs were placed on agar in a 24-well microtiter plate and sprayed with test solutions at an application rate of 200 ppm. After drying, the leaf discs were infested with 5 L1 larvae. The samples were checked for mortality, feeding behavior, and growth regulation 3 days after treatment (DAT).

Heliothis virescens = Heliothis virescens (tobacco budworm) egg test on artificial diet; conditions: 96 h, 200 ppm (concentration in well 18 ppm), eggs 0-24 h old on artificial diet, egg mortality, larval mortality, growth regulation after 4 days
Experimental: Heliothis virescens (Tobacco Budworm):
Eggs (0-24 h old) were placed in 24-well microtiter plate on artificial diet and treated with test solutions at an application rate of 200 ppm (concentration in well 18 ppm) by pipetting. After an incubation period of 4 days, samples were checked for egg mortality, larval mortality, and growth regulation. The following compound gave at least 80% control of Heliothis virescens: A1, A2, A03, A05, A06, A07, A08, A09, A10, A11, A12, A13, A14, A15, A16, A17, A18, A19, A20, A21, A22, A25, A26, A27, A31, A32, A34, A37, A39, A40, A42, A44, A45, A46, A47, A48, A49, A50, A51, A52, A53, B1**.

Plutella xylostella = Plutella xylostella (diamond back moth) artificial diet MTP test; conditions: 144 h, 200 ppm (concentration in well 18 ppm), L2 larvae, larval mortality and growth regulation after 6 days
Experimental: as §1, with “Plutella xylostella (Diamond Back Moth):” for “Diabrotica balteata (Corn Root Worm): A”, “(7-12” for “(6-10”, “6” for “5”

Tetranychus urticae = Tetranychus urticae (two-spotted spider mite) bean leaf disc spray test; conditions: foliar, 192 h, 200 ppm spray on bean leaf discs, mite populations of mixed ages, egg, larval and adult mortality 8 days later
Text: Tetranychus urticae (Two-Spotted Spider Mite): Bean leaf discs on agar in 24-well microtiter plates were sprayed with test solutions at an application rate of 200 ppm. After drying, the leaf discs are infested with mite populations of mixed ages. 8 days later, discs are checked for egg mortality, larval mortality, and adult mortality.

Measured: pest or weed control at 200 ppm

C[C@H](NC(=O)C1CC1)c1ccc(C2=COC(c3cc(Cl)c(Cl)c(Cl)c3)(C(F)(F)F)C2)cc1 (stereo partly drawn) [B1*, N-[(1S)-1-[4-[2-(3,4,5-trichlorophenyl)-2-(trifluoromethyl)-3H-furan-4-yl]phenyl]ethyl]cyclopropanecarboxamide]
≥ 80%: all assays above

CSCC(=O)NCc1ccc(C2=COC(c3cc(Cl)cc(Cl)c3)(C(F)(F)F)C2)cc1Cl (stereo not shown) [Compound A1, N-[[2-chloro-4-[2-(3,5-dichlorophenyl)-2-(trifluoromethyl)-3H-furan-4-yl]phenyl]methyl]-2-methylsulfanyl-acetamide]
≥ 80%: all assays above

O=C(NCc1ccc(C2=COC(c3cc(Cl)cc(Cl)c3)(C(F)(F)F)C2)cc1Cl)C1CC1 (stereo not shown) [Compound A2, N-[[2-chloro-4-[2-(3,5-dichlorophenyl)-2-(trifluoromethyl)-3H-furan-4-yl]phenyl]methyl]cyclopropanecarboxamide]
≥ 80%: all assays above

CCC(CC)C(=O)NCc1ccc(C2=COC(c3cc(Cl)cc(Cl)c3)(C(F)(F)F)C2)cc1Cl (stereo not shown) [Compound A03, N-[[2-chloro-4-[2-(3,5-dichlorophenyl)-2-(trifluoromethyl)-3H-furan-4-yl]phenyl]methyl]-2-ethyl-butanamide]
≥ 80%: all assays above

CCC(=O)NCc1ccc(C2=COC(c3cc(Cl)cc(Cl)c3)(C(F)(F)F)C2)cc1Cl (stereo not shown) [Compound A05, N-[[2-chloro-4-[2-(3,5-dichlorophenyl)-2-(trifluoromethyl)-3H-furan-4-yl]phenyl]methyl]propanamide]
≥ 80%: all assays above

O=C(NCc1ccc(C2=COC(c3cc(Cl)cc(Cl)c3)(C(F)(F)F)C2)cc1Cl)C1CCCO1 (stereo not shown) [Compound A07, N-[[2-chloro-4-[2-(3,5-dichlorophenyl)-2-(trifluoromethyl)-3H-furan-4-yl]phenyl]methyl]tetrahydrofuran-2-carboxamide]
≥ 80%: all assays above

O=C(COCc1ccccc1)NCc1ccc(C2=COC(c3cc(Cl)cc(Cl)c3)(C(F)(F)F)C2)cc1Cl (stereo not shown) [Compound A08, 2-benzyloxy-N-[[2-chloro-4-[2-(3,5-dichlorophenyl)-2-(trifluoromethyl)-3H-furan-4-yl]phenyl]methyl]acetamide]
≥ 80%: Spodoptera littoralis | Heliothis virescens | Tetranychus urticae

CC1CCCCC1C(=O)NCc1ccc(C2=COC(c3cc(Cl)cc(Cl)c3)(C(F)(F)F)C2)cc1Cl (stereo not shown) [Compound A11, N-[[2-chloro-4-[2-(3,5-dichlorophenyl)-2-(trifluoromethyl)-3H-furan-4-yl]phenyl]methyl]-2-methyl-cyclohexanecarboxamide]
≥ 80%: Heliothis virescens | Plutella xylostella | Tetranychus urticae

O=C(Cc1ccccc1)NCc1ccc(C2=COC(c3cc(Cl)cc(Cl)c3)(C(F)(F)F)C2)cc1Cl (stereo not shown) [Compound A14, N-[[2-chloro-4-[2-(3,5-dichlorophenyl)-2-(trifluoromethyl)-3H-furan-4-yl]phenyl]methyl]-2-phenyl-acetamide]
not listed: Diabrotica balteata
≥ 80%: all other assays above

C/N=C1/SC(CC(=O)NCc2ccc(C3=COC(c4cc(Cl)cc(Cl)c4)(C(F)(F)F)C3)cc2Cl)C(=O)N1C (stereo not shown) [Compound A15, N-[[2-chloro-4-[2-(3,5-dichlorophenyl)-2-(trifluoromethyl)-3H-furan-4-yl]phenyl]methyl]-2-[(2E)-3-methyl-2-methylimino-4-oxo-thiazolidin-5-yl]acetamide]
≥ 80%: all assays above

O=C(Cc1cccs1)NCc1ccc(C2=COC(c3cc(Cl)cc(Cl)c3)(C(F)(F)F)C2)cc1Cl (stereo not shown) [Compound A18, N-[[2-chloro-4-[2-(3,5-dichlorophenyl)-2-(trifluoromethyl)-3H-furan-4-yl]phenyl]methyl]-2-(2-thienyl)acetamide]
not listed: Diabrotica balteata
≥ 80%: all other assays above

O=C(COc1ccccc1)NCc1ccc(C2=COC(c3cc(Cl)cc(Cl)c3)(C(F)(F)F)C2)cc1Cl (stereo not shown) [Compound A19, N-[[2-chloro-4-[2-(3,5-dichlorophenyl)-2-(trifluoromethyl)-3H-furan-4-yl]phenyl]methyl]-2-phenoxy-acetamide]
not listed: Spodoptera littoralis
≥ 80%: all other assays above

Cc1cccnc1C(=O)NCc1ccc(C2=COC(c3cc(Cl)cc(Cl)c3)(C(F)(F)F)C2)cc1Cl (stereo not shown) [Compound A39, N-[[2-chloro-4-[2-(3,5-dichlorophenyl)-2-(trifluoromethyl)-3H-furan-4-yl]phenyl]methyl]-3-methyl-pyridine-2-carboxamide]
not listed: Tetranychus urticae
≥ 80%: all other assays above

Cc1cc2ncc(C(=O)NCc3ccc(C4=COC(c5cc(Cl)cc(Cl)c5)(C(F)(F)F)C4)cc3Cl)c(C)n2n1 (stereo not shown) [Compound A40, N-[[2-chloro-4-[2-(3,5-dichlorophenyl)-2-(trifluoromethyl)-3H-furan-4-yl]phenyl]methyl]-2,7-dimethyl-pyrazolo[1,5-a]pyrimidine-6-carboxamide]
≥ 80%: Heliothis virescens | Plutella xylostella | Tetranychus urticae

O=C(NCc1ccc(C2=COC(c3cc(Cl)cc(Cl)c3)(C(F)(F)F)C2)cc1Cl)c1cccs1 (stereo not shown) [Compound A44, N-[[2-chloro-4-[2-(3,5-dichlorophenyl)-2-(trifluoromethyl)-3H-furan-4-yl]phenyl]methyl]thiophene-2-carboxamide]
not listed: Tetranychus urticae
≥ 80%: all other assays above

CCC(Cl)C(=O)NCc1ccc(C2=COC(c3cc(Cl)cc(Cl)c3)(C(F)(F)F)C2)cc1Cl (stereo not shown) [Compound A47, 2-chloro-N-[[2-chloro-4-[2-(3,5-dichlorophenyl)-2-(trifluoromethyl)-3H-furan-4-yl]phenyl]methyl]butanamide]
not listed: Tetranychus urticae
≥ 80%: all other assays above

Cn1nc(C(=O)NCc2ccc(C3=COC(c4cc(Cl)cc(Cl)c4)(C(F)(F)F)C3)cc2Cl)sc1=O (stereo not shown) [Compound A50, N-[[2-chloro-4-[2-(3,5-dichlorophenyl)-2-(trifluoromethyl)-3H-furan-4-yl]phenyl]methyl]-4-methyl-5-oxo-1,3,4-thiadiazole-2-carboxamide]
not listed: Tetranychus urticae
≥ 80%: all other assays above

CCSC(SCC)C(=O)NCc1ccc(C2=COC(c3cc(Cl)cc(Cl)c3)(C(F)(F)F)C2)cc1Cl (stereo not shown) [Compound A53, N-[[2-chloro-4-[2-(3,5-dichlorophenyl)-2-(trifluoromethyl)-3H-furan-4-yl]phenyl]methyl]-2,2-bis(ethylsulfanyl)acetamide]
not listed: Tetranychus urticae
≥ 80%: all other assays above
